Experiments:
Type in all cases: binding
Parameters in all cases: KINOMEscan: ABL1(F317L)-phosphorylated / KINOMEscan: ABL1(H396P)-nonphosphorylated / KINOMEscan: ABL1(H396P)-phosphorylated / KINOMEscan: ABL1(M351T)-phosphorylated / KINOMEscan: ABL1(T315I)-phosphorylated / KINOMEscan: ABL1-nonphosphorylated / KINOMEscan: ABL1-phosphorylated / KINOMEscan: ACVR2A / KINOMEscan: ACVR2B / KINOMEscan: ADCK3 / KINOMEscan: ADCK4 / KINOMEscan: AKT1 / KINOMEscan: AKT3 / KINOMEscan: ALK / KINOMEscan: ARK5 / KINOMEscan: AURKA / KINOMEscan: AURKC / KINOMEscan: BIKE / KINOMEscan: BMPR1A / KINOMEscan: BMPR1B / KINOMEscan: BMX / KINOMEscan: BRK / KINOMEscan: BRSK1 / KINOMEscan: BRSK2 / KINOMEscan: CAMK1 / KINOMEscan: CAMK1D / KINOMEscan: CAMK1G / KINOMEscan: CAMK2A / KINOMEscan: CAMK2B / KINOMEscan: AAK1 / KINOMEscan: CAMK2D / KINOMEscan: CAMK2G / KINOMEscan: ABL1(F317I)-nonphosphorylated / KINOMEscan: ABL1(F317I)-phosphorylated / KINOMEscan: ABL1(F317L)-nonphosphorylated: unit: % Ctrl
Details in all cases: Compound Concentration 10 µM
[1] = molecular target: T1, panel of 442 kinases (Homo sapiens, UniProt P00519)
T1 construct: purchased KINOMEscan
Text: (§1) We assessed the selectivity of members of this scaffold using the KINOMEscan methodology across a near comprehensive panel of 442 kinases [[18,27]].

[2] = molecular target: T2, panel of 442 kinases (Homo sapiens, UniProt P53667)
T2 construct: purchased KINOMEscan
Text: as §1

[3] = molecular target: T3, panel of 442 kinases (Homo sapiens, UniProt Q96D53)
T3 construct: purchased KINOMEscan
T3 sequence (Q96D53 1-544): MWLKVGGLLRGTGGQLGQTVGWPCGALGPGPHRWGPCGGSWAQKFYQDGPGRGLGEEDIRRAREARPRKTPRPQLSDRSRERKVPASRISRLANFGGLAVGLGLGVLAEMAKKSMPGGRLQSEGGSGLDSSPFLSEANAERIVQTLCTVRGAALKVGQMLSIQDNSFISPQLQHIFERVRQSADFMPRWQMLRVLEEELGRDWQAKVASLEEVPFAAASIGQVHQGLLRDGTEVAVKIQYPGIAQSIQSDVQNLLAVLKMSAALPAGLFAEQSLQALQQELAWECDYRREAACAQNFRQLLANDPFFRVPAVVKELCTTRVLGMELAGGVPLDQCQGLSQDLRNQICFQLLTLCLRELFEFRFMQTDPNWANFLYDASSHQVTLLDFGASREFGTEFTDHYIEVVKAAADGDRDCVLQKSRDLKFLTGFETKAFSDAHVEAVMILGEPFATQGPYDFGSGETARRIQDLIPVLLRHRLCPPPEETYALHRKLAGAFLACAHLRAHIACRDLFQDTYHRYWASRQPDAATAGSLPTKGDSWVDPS
Text: as §1

T1 sequence (P00519 whole entry): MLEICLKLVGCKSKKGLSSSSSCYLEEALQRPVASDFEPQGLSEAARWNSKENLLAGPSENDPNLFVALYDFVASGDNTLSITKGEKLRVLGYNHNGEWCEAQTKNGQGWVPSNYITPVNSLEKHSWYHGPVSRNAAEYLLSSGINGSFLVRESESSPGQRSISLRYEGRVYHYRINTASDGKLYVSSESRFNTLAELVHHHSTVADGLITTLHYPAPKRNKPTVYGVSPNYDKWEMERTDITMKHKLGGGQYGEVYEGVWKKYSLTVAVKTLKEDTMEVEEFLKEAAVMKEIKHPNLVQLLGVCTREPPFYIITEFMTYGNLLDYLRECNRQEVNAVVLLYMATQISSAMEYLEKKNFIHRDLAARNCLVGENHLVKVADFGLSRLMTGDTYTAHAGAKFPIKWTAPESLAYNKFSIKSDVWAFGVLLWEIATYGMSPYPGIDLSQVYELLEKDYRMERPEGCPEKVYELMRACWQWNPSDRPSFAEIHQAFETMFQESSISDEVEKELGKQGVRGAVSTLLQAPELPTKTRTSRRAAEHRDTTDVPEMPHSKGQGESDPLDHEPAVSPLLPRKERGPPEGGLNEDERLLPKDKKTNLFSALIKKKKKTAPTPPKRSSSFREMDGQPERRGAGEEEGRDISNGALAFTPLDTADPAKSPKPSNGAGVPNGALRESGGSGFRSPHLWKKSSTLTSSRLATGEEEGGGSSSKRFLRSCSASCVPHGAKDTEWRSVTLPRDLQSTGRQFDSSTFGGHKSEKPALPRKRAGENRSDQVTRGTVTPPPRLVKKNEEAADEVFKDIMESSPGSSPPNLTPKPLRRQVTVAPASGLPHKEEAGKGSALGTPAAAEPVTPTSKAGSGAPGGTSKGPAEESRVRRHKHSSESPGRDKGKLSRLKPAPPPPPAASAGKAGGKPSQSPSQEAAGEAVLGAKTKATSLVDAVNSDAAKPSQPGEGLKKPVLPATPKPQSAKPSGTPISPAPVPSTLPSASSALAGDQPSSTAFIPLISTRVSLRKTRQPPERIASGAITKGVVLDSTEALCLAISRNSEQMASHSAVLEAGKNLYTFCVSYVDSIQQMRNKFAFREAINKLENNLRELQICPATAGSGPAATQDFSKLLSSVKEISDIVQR
T2 sequence (P53667 whole entry): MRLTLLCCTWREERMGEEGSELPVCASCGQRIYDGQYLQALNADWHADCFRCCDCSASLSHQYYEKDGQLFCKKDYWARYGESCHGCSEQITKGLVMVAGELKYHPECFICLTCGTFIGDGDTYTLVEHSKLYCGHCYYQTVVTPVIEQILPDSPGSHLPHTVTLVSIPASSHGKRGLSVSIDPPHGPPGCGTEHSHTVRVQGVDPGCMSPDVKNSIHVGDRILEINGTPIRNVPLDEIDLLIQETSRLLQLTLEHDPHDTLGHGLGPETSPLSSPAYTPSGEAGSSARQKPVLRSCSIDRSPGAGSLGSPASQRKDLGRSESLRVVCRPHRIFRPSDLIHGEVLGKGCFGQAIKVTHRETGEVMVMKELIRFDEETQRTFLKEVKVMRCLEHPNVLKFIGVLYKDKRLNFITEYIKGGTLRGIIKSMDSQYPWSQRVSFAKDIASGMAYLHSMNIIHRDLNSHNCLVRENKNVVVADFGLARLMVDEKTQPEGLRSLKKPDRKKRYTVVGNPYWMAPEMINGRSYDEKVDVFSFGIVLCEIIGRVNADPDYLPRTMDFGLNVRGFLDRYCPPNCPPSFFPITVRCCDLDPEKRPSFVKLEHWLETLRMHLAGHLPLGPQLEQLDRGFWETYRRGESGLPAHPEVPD

SMILES: COc1cc(C(=O)N2CCC(N3CCN(C)CC3)CC2)ccc1Nc1ncc2c(n1)N(C1CCCC1)c1ccccc1C(=O)N2C [Compound 25, 11-cyclopentyl-2-((2-methoxy-4-(4-(4-methylpiperazin-1-yl)piperidine-1-carbonyl)phenyl)amino)-5-methyl-5H-benzo[e]pyrimido[5,4-b][1,4]diazepin-6(11H)-one]
- KINOMEscan: ABL1-nonphosphorylated [1]: 90
- KINOMEscan: ABL1-phosphorylated [1]: 100
- KINOMEscan: LIMK1 [2]: 93
- KINOMEscan: ADCK4 [3]: 92

SMILES: CCOc1cc(C(=O)N2CCC(N3CCN(C)CC3)CC2)ccc1Nc1ncc2c(n1)N(C1CCCC1)c1ccccc1C(=O)N2C [Compound 26]
- KINOMEscan: ABL1-nonphosphorylated [1]: 96
- KINOMEscan: ABL1-phosphorylated [1]: 100
- KINOMEscan: LIMK1 [2]: 100
- KINOMEscan: ADCK4 [3]: 100

SMILES: COc1cc(C(=O)N2CCC(N3CCN(C)CC3)CC2)ccc1Nc1ncc2c(n1)N1CCc3cccc(c31)C(=O)N2C [Compound 24]
- KINOMEscan: ABL1-nonphosphorylated [1]: 60
- KINOMEscan: ABL1-phosphorylated [1]: 81
- KINOMEscan: ADCK4 [3]: 81

SMILES: COc1cc(C(=O)N2CCC(N3CCN(C)CC3)CC2)ccc1Nc1ncc2c(n1)N(C)c1ccccc1C(=O)N2C [15 (LRRK2-IN-1)]
- KINOMEscan: ABL1-nonphosphorylated [1]: 100
- KINOMEscan: ABL1-phosphorylated [1]: 82
- KINOMEscan: LIMK1 [2]: 95
- KINOMEscan: ADCK4 [3]: 94

Reference: PMC3914206
